# From US20090060851A1, “USE OF IDEBENONE FOR THE PREPARATION OF A TOPICALLY-APPLIED DEPIGMENTATION COMPOSITION AND CORRESPONDING COMPOSITION” (priority 2005, published 2009)
# Assay: Idebenone dosing in skin cuts by gas chromatography (penetration)
# Assay type: in vivo, mice
# Settings: mouse skin, topical cream
# Experimental: Creams containing 5% and 2.5% w/w idebenone (IDB) in a neutral phase were prepared. Said creams and a cream having an identical formulation but without idebenone were applied on nude adult mice with 3 months of age. The cream with idebenone was applied on the right half of the body of the animals and the control cream on the left half according to the scheme detailed below. The animals were sacrificed 1, 2, 3 or 4 hours after applying the cream (p.a.). • Batch A: animal treated with 5% IDB (1 hour p.a.) • Batch B: animal treated with 2.5% IDB (1 hour p.a.) • Batch C: animal treated with 5% IDB (2 hours p.a.) • Batch D: animal treated with 2.5% IDB (2 hours p.a.) • Batch E: animal treated with 5% IDB (3 hours p.a.) • Batch F: animal treated with 2.5% IDB (3 hours p.a.) • Batch G: animal treated with 5% IDB (4 hours p.a.) • Batch H: animal treated with 2.5% IDB (4 hours p.a.) […]
# Idebenone dosing by gas chromatography: The treated and control skin sections were placed epidermis side down on a cryostat stage and 300 micron thick sections parallel to the surface were obtained in such a manner so as to obtain a deep cut, a surface cut and a medium cut. […] Each extract was analyzed by gas chromatography using a Hewlett Packard 5890 gas chromatograph, using a capillary column with methyl silicone as stationary phase (HP-IMS, 25 m×0.2 mm, 0.33μ thick film). […]
compound,measurement,value
"COC1=C(OC)C(=O)C(CCCCCCCCCCO)=C(C)C1=O [idebenone, 6-(10-hydroxydecyl)-2,3-dimethoxy-5-methyl-1,4-benzoquinone]",Penetration of IDB in the skin,penetrates the skin and is retained up to two hours after its application in the most superficial sections
